Test results from US20070093457A1, “Compositions for treatment of cancer and inflammation with curcumin and at least one nsaid” (priority 2004, published 2007).

What was measured:
RASFs = assay: RASF cell viability assay (XTT); assay type: cell-based; settings: Homo sapiens, 72 hours, read-out: IC50 cell growth
Experimental: RASFs that had been prepared from small pieces (2 mm in diameter) of human synovial tissue were grown after trypsinization in monolayers in tissue culture flasks, as known to a person skilled in the art. The synovial tissue specimens were obtained during total knee replacement surgery in patients diagnosed as having rheumatoid arthritis according to the revised criteria of the American College of Rheumatology. Synovial tissue was digested for 2 hours with 0.2% (weight/volume) bacterial collagenase and then suspended in Dulbecco's modified Eagle's medium (DMEM, Biological Industries, Israel) with 10% (volume/volume) fetal calf serum (FCS), 100 units/ml penicillin, and […] streptomycin. The cells were incubated at 37° C. in 5% CO2 for 3-5 days, after which the non-adherent cells were removed. Fibroblast-like adherent cells from the first or second passage were used as RASFs.
RASFs (1.5×10^4/well) were incubated at 37° C. in 96-well plastic plates with test drugs in DMEM containing 10% FCS in an atmosphere of 5% CO2 (fmal dimethyl sulfoxide concentration 0.1%). After 72 hours, cell viability was assessed by the ability of metabolically active cells to reduce tetrazolium salt (XTT) to colored formazan compounds. The absorbance of the samples was measured with a specific enzyme-linked immunoassay (ELISA) reader (wavelength 450 nm; reference wavelength 630 nm). […]

RASF cells = assay: RASF apoptosis, flow-cytometric analysis
COX-2 mRNA = assay: Reverse transcriptase PCR of COX-2 mRNA; assay type: cell-based, human; settings: HT-29; selected concentrations
Experimental: HT-29 cells were treated with the selected drugs as indicated. The mRNA was extracted, and equal amounts were transcribed to cDNA from a kit (Promega, CITY, USA). The cDNA was taken from samples at various times and used as the DNA templates for PCR. Primers used for COX-2 were: […]
GAPDH was used to ensure equal loading. […] were used as the template and […] of each primer was used for each cDNA sample. The samples went through 30 rounds of PCR. They were separated on 1% agarose gel and visualized by ethidium bromide. 7. Measurement of PGE2 Concentration

COX-2 = settings: HT-29; curcumin 10-15 μM
Experimental: PGE2 concentration in the medium, as released by the cells, was determined by a commercially available PGE2-specific enzyme-linked immunoassay (R&D Biosystems, Abingdon, UK) according to the manufacturer's protocol.

COc1cc(/C=C/C(=O)CC(=O)/C=C/c2ccc(O)c(OC)c2)ccc1O [curcumin]
IC50 (RASFs): 35 µM | cell apoptosis (cells with sub-diploid DNA content) (RASF cells; curcumin 20 μM): 4.7% | COX-2 mRNA expression (COX-2 mRNA): no effect | effect on PGE2 synthesis (COX-2): dose-dependent effect

Cc1ccc(-c2cc(C(F)(F)F)nn2-c2ccc(S(N)(=O)=O)cc2)cc1 [celecoxib, reference compound]
IC50 (RASFs): 40 µM | cell apoptosis (cells with sub-diploid DNA content) (RASF cells; celecoxib 20-40 μM): 4.8-19.2%
